Test results: article PMC8820783, “In vitro and in silico studies on clinically important enzymes inhibitory activities of flavonoids isolated from Euphorbia pulcherrima” (Annals of Medicine, 2022)
Read-outs that look alike come from different tables or passages of the source.

Key:
[1] = molecular target: phosphodiesterase I from Crotalus adamanteus venom (Crotalus adamanteus, UniProt J3SEZ3); test: biochemical
mushroom tyrosinase = molecular target: T1, mushroom tyrosinase (Agaricus bisporus, UniProt C7FF04); test: Tyrosinase inhibition (L-DOPA, 96-well); format: biochemical; details: L-DOPA substrate, read-out: IC50 ± S.E. (tyrosinase)
T1 construct: purchased Sigma-Aldrich T3824; host or cells: mushroom (natural source)
Procedure: According to this method, the tested compounds (10 µL) was carefully transfer into a 96-well microplate, mixed with 10 µL mushroom tyrosinase and buffer solution 60 µL. After incubation, 20 µL of 3,4-dihydroxy-l-phenylalanine (L-DOPA) in phosphate buffer was blended, and some amount of dopachrome was added into the reaction mixture. The effect was checked by spectrophotometry at 450 nm with (OD480) (optical density, OD). EZ-Fit software was used to measure the IC50 values in µM. The % inhibition was calculated by using following formula. Percent inhibition=100−OD test well/OD control×100

[2] = molecular target: Jack bean (Canavalia ensiformis) urease (Canavalia ensiformis, UniProt P07374); test: biochemical
[3] = molecular target: bovine serum albumin (BSA) glycation by MGO (Bos taurus, UniProt P02769); test: Anti-glycation inhibition (BSA-MGO fluorescence); format: biochemical; details: 37 °C, 9 days; for IC50: read-out: IC50 ± S.E. (antiglycation)
Procedure: After incubation, glycation of protein was measured using fluorescence (emission, 440 nm; excitation, 330 nm), against a blank, and using a microtiter plate spectrophotometer (Spectra Max, Molecular Devices, Sunnyvale, CA).

Sequence of phosphodiesterase I from Crotalus adamanteus venom (J3SEZ3 24-851 limits assumed): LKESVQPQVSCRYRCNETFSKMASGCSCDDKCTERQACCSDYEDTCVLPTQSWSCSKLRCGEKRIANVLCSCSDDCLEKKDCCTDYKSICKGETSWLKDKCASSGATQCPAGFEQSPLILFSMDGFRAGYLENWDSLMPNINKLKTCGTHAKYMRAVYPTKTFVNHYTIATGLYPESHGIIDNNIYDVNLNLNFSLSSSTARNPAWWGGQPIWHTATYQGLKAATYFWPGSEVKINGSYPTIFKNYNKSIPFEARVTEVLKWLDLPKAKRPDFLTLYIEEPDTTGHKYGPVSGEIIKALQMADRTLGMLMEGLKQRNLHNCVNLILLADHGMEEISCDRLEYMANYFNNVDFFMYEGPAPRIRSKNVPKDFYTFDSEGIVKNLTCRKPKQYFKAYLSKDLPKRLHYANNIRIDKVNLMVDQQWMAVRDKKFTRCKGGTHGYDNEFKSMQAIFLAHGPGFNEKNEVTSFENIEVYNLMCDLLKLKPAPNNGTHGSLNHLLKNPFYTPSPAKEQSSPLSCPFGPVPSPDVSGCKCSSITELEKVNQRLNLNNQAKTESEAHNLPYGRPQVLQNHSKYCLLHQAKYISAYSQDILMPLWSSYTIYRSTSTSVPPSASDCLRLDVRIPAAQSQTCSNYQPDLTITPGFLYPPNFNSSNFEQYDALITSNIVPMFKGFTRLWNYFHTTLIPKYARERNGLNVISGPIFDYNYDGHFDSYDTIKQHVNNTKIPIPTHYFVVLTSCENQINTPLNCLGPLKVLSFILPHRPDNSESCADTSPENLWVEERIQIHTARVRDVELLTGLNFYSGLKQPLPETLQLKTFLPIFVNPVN
Sequence of bovine serum albumin (BSA) glycation by MGO (P02769 25-607): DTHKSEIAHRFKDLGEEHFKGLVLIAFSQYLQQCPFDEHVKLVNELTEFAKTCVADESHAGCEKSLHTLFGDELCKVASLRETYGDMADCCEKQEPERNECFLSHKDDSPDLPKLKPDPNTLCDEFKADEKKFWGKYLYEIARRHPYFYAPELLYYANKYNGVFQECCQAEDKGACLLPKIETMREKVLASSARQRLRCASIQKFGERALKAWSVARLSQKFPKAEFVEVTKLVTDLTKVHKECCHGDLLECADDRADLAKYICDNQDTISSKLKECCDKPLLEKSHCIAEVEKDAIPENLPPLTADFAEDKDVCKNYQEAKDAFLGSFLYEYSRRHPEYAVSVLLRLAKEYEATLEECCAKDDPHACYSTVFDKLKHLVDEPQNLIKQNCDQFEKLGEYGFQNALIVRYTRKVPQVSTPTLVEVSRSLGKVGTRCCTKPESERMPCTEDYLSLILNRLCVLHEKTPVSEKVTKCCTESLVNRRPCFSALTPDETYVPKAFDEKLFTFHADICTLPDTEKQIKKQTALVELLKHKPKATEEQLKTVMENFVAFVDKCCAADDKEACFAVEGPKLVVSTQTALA
Sequence of Jack bean (Canavalia ensiformis) urease (P07374 whole entry, looked up): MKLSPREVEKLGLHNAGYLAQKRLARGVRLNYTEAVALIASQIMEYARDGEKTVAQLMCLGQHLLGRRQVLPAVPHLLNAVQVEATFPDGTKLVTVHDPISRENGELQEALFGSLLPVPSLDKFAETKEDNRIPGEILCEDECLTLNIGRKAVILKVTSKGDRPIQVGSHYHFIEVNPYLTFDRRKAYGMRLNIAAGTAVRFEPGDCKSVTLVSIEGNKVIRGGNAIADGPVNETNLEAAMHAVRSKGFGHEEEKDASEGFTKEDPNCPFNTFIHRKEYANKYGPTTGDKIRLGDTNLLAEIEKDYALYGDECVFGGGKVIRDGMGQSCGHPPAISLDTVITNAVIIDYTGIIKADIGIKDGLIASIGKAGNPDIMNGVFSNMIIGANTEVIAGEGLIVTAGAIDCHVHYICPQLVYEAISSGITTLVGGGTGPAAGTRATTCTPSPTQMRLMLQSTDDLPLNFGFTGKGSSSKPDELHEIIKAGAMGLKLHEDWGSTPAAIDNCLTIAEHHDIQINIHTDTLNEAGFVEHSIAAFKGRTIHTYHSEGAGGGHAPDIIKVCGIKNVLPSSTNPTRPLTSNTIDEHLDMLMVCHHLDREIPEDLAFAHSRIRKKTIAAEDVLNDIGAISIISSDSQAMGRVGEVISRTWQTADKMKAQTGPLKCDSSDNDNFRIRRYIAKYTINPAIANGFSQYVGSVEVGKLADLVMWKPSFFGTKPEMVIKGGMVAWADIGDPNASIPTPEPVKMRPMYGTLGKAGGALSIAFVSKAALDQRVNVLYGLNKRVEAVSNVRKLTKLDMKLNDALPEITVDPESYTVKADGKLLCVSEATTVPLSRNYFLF
T1 sequence (C7FF04 1-392 limits assumed): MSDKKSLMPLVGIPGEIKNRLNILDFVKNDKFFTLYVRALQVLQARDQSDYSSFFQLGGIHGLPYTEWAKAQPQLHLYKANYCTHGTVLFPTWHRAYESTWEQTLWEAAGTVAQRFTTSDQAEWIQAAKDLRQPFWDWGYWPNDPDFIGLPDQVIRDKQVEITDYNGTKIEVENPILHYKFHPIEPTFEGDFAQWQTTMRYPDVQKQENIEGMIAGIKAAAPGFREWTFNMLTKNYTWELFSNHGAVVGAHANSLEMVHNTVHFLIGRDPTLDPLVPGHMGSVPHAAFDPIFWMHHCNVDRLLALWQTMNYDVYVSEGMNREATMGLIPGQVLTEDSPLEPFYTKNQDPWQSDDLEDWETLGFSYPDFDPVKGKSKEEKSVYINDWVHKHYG

Row | Compound | IC50 ([1]; table head prints no unit, read-out: IC50 ± S.E.M. (phosphodiesterase)) [µM] | IC50 (mushroom tyrosinase) [µM] | IC50 [2] [µM] | IC50 [1] [µM] | IC50 ± S.E. (antiglycation) [3] | IC50 [3] [µM]
1 | O=C(O)CN(CCN(CC(=O)O)CC(=O)O)CC(=O)O [EDTA, reference compound] | 265 ± 2.24 | – | – | – | – | –
2 | COc1cc(-c2oc3cc(O)c(OC)c(O)c3c(=O)c2O)ccc1O [compound 1, 3,5,7-trihydroxy-2-(4-hydroxy-3-methoxyphenyl)-6-methoxy-4H-chromen-4-one] | – | 48.7 ± 2.19 | 15.3 ± 2.13 | 148.7 ± 1.09 | inactive | –
3 | COc1c(O)cc2oc(-c3ccc(O)c(O)c3)c(O)c(=O)c2c1O [compound 2, 2-(3,4-dihydroxyphenyl)-3,5,7-trihydroxy-6-methoxy-4H-chromen-4-one] | – | 74.8 ± 1.79 | 19 ± 2.43 | 95.2 ± 4.14 | – | 244.8 ± 1.79
4 | C[C@@H]1O[C@@H](OC[C@H]2O[C@@H](Oc3c(-c4ccc(O)c(O)c4)oc4cc(O)cc(O)c4c3=O)[C@H](O)[C@@H](O)[C@@H]2O)[C@H](O)[C@H](O)[C@H]1O [rutin, Rutin, reference compound] | – | – | – | – | – | 295 ± 3.14
